Two compounds from patent US4215215A, “9-Phenyl-nonate traene compounds” (Hoffmann-La Roche Inc., priority 1979, dated 1980) can be followed below.

Some results are limits rather than exact numbers.

Data set [1] concerns papillomas. Nature of the data set: Papilloma test (tumors induced with dimethylbenzanthracene and croton oil). The settings on record: intraperitoneal, within 2 weeks. The data set is classed as in vivo. An excerpt: The compounds of formula I are effective for utilizing tumors such as papillomas. In the papilloma test, tumors induced with dimethylbenzanthracene and croton oil regress. The diameters of the papillomae decline within 2 weeks on intraperitoneal administration.

Data set [2] is described as follows: in vivo. The settings on record: mouse, ip, mice; for LD50 at 24 h: After 1 day; for LD50 at 24 h / LD50 at 240 h / LD50 at 480 h: intraperitoneal, in rape-oil; for LD50 at 240 h: After 10 days; for LD50 at 480 h: After 20 days; for LD50: intraperitoneal administration in rape-oil, no time stated, read-out: acute toxicity [LD50].

As for `COc1cc(C)c(C=CC(C)=CC=CC(C)=CC(=O)O)c(C)c1C` [Substance A, 9-(4-methoxy-2,3,6-trimethyl-phenyl)-3,7-dimethyl-nona-2,4,6,8-tetraen-1-oic acid], the “decline of the diameters of the papillomae” value (from here on “decline”) in data set [1] (50 mg/kg/week) turned out to be 38%. For the same compound, the “decline” value in data set [1] (100 mg/kg/week) was determined as 69%. For the same compound, in data set [2], the LD50 (commonly the dose at which mortality reaches 50%) at 24 h is > 4000 mg/kg, the LD50 at 240 h is 700 mg/kg, the LD50 at 480 h amounted to 700 mg/kg and the median lethal dose (LD50) worked out at 700 mg/kg.

`CCOC(=O)C=C(C)C=CC=C(C)C=Cc1c(C)cc(OC)c(C)c1C` [Substance B, 9-(4-methoxy-2,3,6-trimethyl-phenyl)-3,7-dimethyl-nona-2,4,6,8-tetraen-1-oic acid ethyl ester]: the “decline” value in data set [1] (25 mg/kg/week) stood at 45%. In data set [1] (50 mg/kg/week), the “decline” value came to 63%. For the same compound, in data set [2], the LD50 at 24 h was > 4000 mg/kg, the LD50 at 240 h came out at 1900 mg/kg, the LD50 at 480 h worked out at 1000 mg/kg and the LD50 is 1000 mg/kg.
